Like-named read-outs stand apart in the source and are kept apart here. *1 amine or outer side, *2 acyl side, *3 side chain or, on linkers, in order; H or OH if unused. Where a SMILES comes first, the peptide text is derived from it. Bridges are numbered along the chain shown (N, C = ends). Roman numbers before positions name the chains, in order. [ ]: non-standard residue; d: D form. Actinocin(9to1) = Cc1c2oc3c(C)ccc(C(=O)[*:1])c3nc-2c(C(=O)[*:2])c(N)c1=O; NMeV = CN[C@H](C(=O)O)C(C)C; Sar = CNCC(=O)O
Key:
[1] = test system: pieces of ovary from the scallop; settings: cited from earlier work
[2] = test system: ovarian pieces of the scallop; settings: isolated ovarian pieces in vitro; cited from earlier work
Japanese scallop = settings: in vivo; cited from earlier work
C. gigas = settings: cited from earlier work
C. virginica = experiment: Spawning response of estradiol-17β-injected oysters to serotonin stimulus after normal spawning season; type: in vivo, Crassostrea virginica
Procedure: A series of initial experiments assayed the response of C. virginica to low doses of estradiol-17β. These trials were undertaken in August and September, at the end of the normal maturation and spawning season of this species on the Gulf coast. Experiments typically ran for two weeks following the injection of a single dose of estradiol-17β into the […] muscle. (Injections were made through a small hole drilled in the shell.) The estradiol dosage for each animal was calculated based on wet body tissue mass of the whole animal, as estimated from its shell length. (These estimates were based on linear regression from measurements of shell lengths and wet body mass from 62 mixed-sex oysters that had been harvested in July). […] (The normal physiological level is 1.5 ng per gram wet weight. So a 5× dosage is 7.5 ng per gram wet weight, […]) Responses to the estradiol treatment were based on visual assessment of gonadal condition, on the response of the excised whole animal to a solution of 0.01 mM 5-hydroxytryptamine during a 45 min treatment period, and on histological examination of samples of the oyster taken through the body mass containing the gonadal region.
The three trials summarized in Table 1 were analyzed using a yes/no non-parametric chi-squared analysis.

oysters = experiment: Presence of prominent genital canals 14 days after estradiol-17β injection; type: in vivo, Crassostrea virginica; settings: after 14 days, May
Procedure: In another experiment, conducted in May in Grand Isle, La., animals were injected either with 0 (control), 37.5 ng/g, or 74 ng/g of estradiol-17β. After 14 days, animals were evaluated using the traditional methodology of assaying the presence of prominent genital canals, indicative of mature animals that are ready to spawn. These animals were not subjected to serotonin treatment, but rather were sacrificed for histological examination to establish a somatic-gonadal ratio index. […] Data analysis was performed using GraphPad InStat software. The data reported in Table 2 are conservative, in the following sense: During the trial period, the water temperature decreased from 23° C. to 18° C., and then increased to 22° C., all within a thirty-six hour period. Such a temperature change is alone often sufficient to trigger spawning in the wild.

[3] = test system: triploid C. virginica oysters; experiment: Triploid oysters: sex, gonadal condition and oocyte yield by stripping after estradiol injection; type: in vivo, Crassostrea virginica; settings: 150 ng/gm wet weight
Procedure: In trials with 261 triploid C. virginica oysters that began on May 31 in Grand Isle, La., the oysters were notched and were then injected with 150 ng/gm wet weight estradiol 17β. Ten days later, the animals were sacrificed, and their sex and gonadal condition were determined. Of the 261 animals tested, 13 were confirmed female triploids. These 13 triploid females yielded a total of 6 million oocytes by traditional stripping techniques, which is not a high yield in comparison to diploid animals, but was high compared to untreated triploids.
For comparison, on May 6 of the following year, 165 animals selected from the same original cohort of triploid oysters were sacrificed without the estradiol treatment. […] While these observations were made one year apart, both sets of observations involved triploid animals sharing the same diploid parents. The estradiol-treated group was 2 years old at the time of observation, while the untreated group one year later was 3 years old. […] However, in support of the effectiveness of the treatment, it may be noted that the three-year-old, untreated animals were sacrificed at a time when the population of mature and spawning diploid animals in the same location was at its peak, whereas the two-year-old, estradiol-treated animals were examined when the number of mature and spawning diploids was in decline.

[4] = test system: zebra mussels (Dreissena polymorpha); settings: cited from earlier work
[5] = test system: scallop Patinopecten yessoensis; settings: intragonadal injection; cited from earlier work
[6] = Aug. 18, injection 75 ng per gram wet weight
[7] = Sep. 15, injection 7.5 ng per gram wet weight
[8] = Sep. 22, injection 15 ng per gram wet weight

In the case of `CC[C@@H](CO)NC(=O)[C@@H]1C=C2c3cccc4c3c(cn4C)C[C@H]2N(C)C1` [Methysergide], the release of eggs ([1]; pieces of ovary in vitro) is listed as “inhibited the release of eggs”.

For `CCCCC[C@H](O)/C=C/[C@H]1[C@H](O)CC(=O)[C@@H]1C/C=C\CCCC(=O)O` [PGE2, prostaglandin E2], the “effect on serotonin-induced egg release” value ([1]; pieces of ovary in vitro) is given as “enhanced the effect of serotonin” and the release of eggs ([1]; pieces of ovary in vitro) is given as “did not induce egg release”.

In the case of `Cc1c2oc3c(C)ccc(C(=O)N[C@@H]4C(=O)N[C@H](C(C)C)C(=O)N5CCC[C@H]5C(=O)N(C)CC(=O)N(C)[C@@H](C(C)C)C(=O)O[C@@H]4C)c3nc-2c(C(=O)N[C@@H]2C(=O)N[C@H](C(C)C)C(=O)N3CCC[C@H]3C(=O)N(C)CC(=O)N(C)[C@@H](C(C)C)C(=O)O[C@@H]2C)c(N)c1=O` [actinomycin D] (I: T[dV]P[Sar][NMeV] / II: T[dV]P[Sar][NMeV]; ester I:1-I:C, II:1-II:C; linker I:N-II:N via Actinocin(9to1)), the “effect on the accelerating effect of estradiol-17β pre-incubation” value [2] is listed as “inhibited”.

In the case of `CC(=O)Oc1ccccc1C(=O)O` [aspirin], the “effect on serotonin-induced egg release” value ([1]; PGE2 also present) is given as “did not inhibit serotonin-induced egg release” and the “effect on the accelerating effect of estradiol-17β pre-incubation” value [2] is given as “inhibited”.

In the case of `C[C@]12C[C@H]3S[C@H]3C[C@@H]1CC[C@@H]1[C@@H]2CC[C@]2(C)[C@@H](O)CC[C@@H]12` [epitostanol], the “increase of PGE2 and PGF2α in the ovary” value (Japanese scallop) is given as “inhibit the increase of PGE2 and PGF2α”.

For `C[C@]12CC[C@@H]3c4ccc(OC(=O)c5ccccc5)cc4CC[C@H]3[C@@H]1CC[C@@H]2O` [estradiol-3-benzoate], the “response time following injection” value (C. gigas) is listed as “about 50 days” and the gonadal-somatic index ratio (C. gigas; high dose injected into the gonad) is listed as “promoted an increase in the gonadal-somatic index ratio”.

With `C[C@]12CC[C@@H]3c4ccc(O)cc4CC[C@H]3[C@@H]1CC[C@@H]2O` [estradiol-17β] the “Animals not responding to 5-hydroxytryptophan stimulus - %” value (from here on “Animals not responding … - %”) (C. virginica; [6]) was 42%, the “Animals not responding to 5-hydroxytryptophan stimulus - no.” value (“Animals not responding … - no.” for short) (C. virginica; [6]) was 6 and the “Animals responding to 5-hydroxytryptophan stimulus - %” value (shortened to “Animals responding … - %”) (C. virginica; [6]) was 58%. The “Animals responding to 5-hydroxytryptophan stimulus - no.” value (from here on “Animals responding … - no.”) (C. virginica; [6]) was 8, the “Animals not responding … - %” value (C. virginica; [7]) was 60% and the “Animals not responding … - no.” value (C. virginica; [7]) was 12. For the same compound, the “Animals responding … - %” value (C. virginica; [7]) was 40%, the “Animals responding … - no.” value (C. virginica; [7]) was 8 and the “Animals not responding … - %” value (C. virginica; [8]) was 65%. For the same compound, the “Animals not responding … - no.” value (C. virginica; [8]) was 21, the “Animals responding … - %” value (C. virginica; [8]) was 35% and the “Animals responding … - no.” value (C. virginica; [8]) was 11. For the same compound, the “number with prominent genital canals” value (oysters; dose 1 group, 37.5 ng/g) was 11, the “number without prominent genital canals” value (oysters; dose 1 group, 37.5 ng/g) was 38 and the “percent with prominent genital canals” value (oysters; dose 1 group, 37.5 ng/g) was 22%. The “percent without prominent genital canals” value (oysters; dose 1 group, 37.5 ng/g) was 78%, the “number with prominent genital canals” value (oysters; dose 2 group, 74 ng/g) was 18 and the “number without prominent genital canals” value (oysters; dose 2 group, 74 ng/g) was 35. For the same compound, the “percent with prominent genital canals” value (oysters; dose 2 group, 74 ng/g) was 34%, the “percent without prominent genital canals” value (oysters; dose 2 group, 74 ng/g) was 66% and the “total oocytes yielded by traditional stripping” value ([3]; 13 triploid females, ten days after injection) was 6 million oocytes. For the same compound, the “confirmed female triploids among animals tested” value ([3]; of 261 triploid oysters, untreated cohort of 165 had none) was 13.

In the case of `CNCCC(Oc1ccc(C(F)(F)F)cc1)c1ccccc1` (stereo not drawn) [fluoxetine], the induction of spawning [4] is given as “can induce spawning in both sexes”.

For `COCCCC/C(=N\OCCN)c1ccc(C(F)(F)F)cc1` [fluvoxamine], the induction of spawning [4] is listed as “can induce spawning in both sexes”.

For `COc1ccc2c(c1)c(CC(=O)O)c(C)n2C(=O)c1ccc(Cl)cc1` [indomethacin], the “effect on serotonin-induced egg release” value ([1]; PGE2 also present) is given as “did not inhibit serotonin-induced egg release”.

In the case of `Fc1ccc([C@@H]2CCNC[C@H]2COc2ccc3c(c2)OCO3)cc1` [paroxetine], the induction of spawning [4] is listed as “can induce spawning in both sexes”.

For `NCCc1c[nH]c2ccc(O)cc12` [serotonin, 5-hydroxytryptamine], the spawning [5] is listed as “stimulated spawning in both sexes”, the release of eggs ([1]; pieces of ovary in vitro) is listed as “the number of released eggs increased significantly” and the induction of spawning [4] is listed as “induce both oocyte meiotic maturation and spawning”.

For prostaglandin F2α [PGF2α], the “effect on serotonin-induced egg release” value ([1]; pieces of ovary in vitro) is listed as “significantly inhibited the effect of serotonin”.

Source: patent US7013836B1, “Enhancing maturation of oocytes in bivalves” (Board of Supervisors of Louisiana State University and …, priority 2002, dated 2006)
